Earlier results, collected in patent US20030232787A1, “Combinations of an endothelin receptor antagonist and an antiepileptic compound having pain alleviating properties or analgesic” (priority 2002, published 2003).
Square brackets hold non-standard residues; d marks the D form. Peptide text beside a SMILES is read from it.

Tests used:
[1] = test system: rat model of diabetic neuropathy; conditions: Jarvis et al. 2000; cited from earlier work
[2] = test system: mouse model of inflammation and hyperalgesia; conditions: Piovezan et al. 2000; cited from earlier work
[3] = test system: streptozotocin-induced static allodynia; conditions: rat; Field et al.; cited from earlier work

In the case of `CCCCN(CCCC)C(=O)CN1C[C@H](c2ccc3c(c2)OCO3)[C@@H](C(=O)O)[C@@H]1c1ccc(OC)cc1` [ABT-627, 2R-(4-Methoxyphenyl)-4S-(1,3-benzodioxol-5-yl)-1-(N,N-di(n-butyl)aminocarbonyl-methyl)-pyrrolidine-3R-carboxylic acid], the effect on pain [1] is listed as “attenuate pain”.

In the case of `CC(C)C[C@@H]1NC(=O)[C@@H](C(C)C)NC(=O)[C@@H]2CCCN2C(=O)[C@@H](CC(=O)O)NC(=O)[C@@H](Cc2c[nH]c3ccccc23)NC1=O` [BQ-123] (cyclo(L[dW][dD]P[dV])), the effect on pain [2] is given as “alleviate pain”.

For `CC(NC(=O)C(C)(Cc1c[nH]c2ccccc12)NC(=O)OCc1cc2ccccc2o1)c1ccccc1` (stereo not drawn) [[2-(1H-indol-3-yl)-1-methyl-1-(1-phenyl-ethylcarbamoyl)-ethyl]-carbamic acid benzofuran-2-ylmethyl ester], the “effect on maintenance of streptozotocin-induced static allodynia” value [3] is given as “block the maintenance of streptozotocin-induced static allodynia”.
